Key:
[1] = target: Receptor-type tyrosine-protein kinase FLT3 (Homo sapiens, UniProt P36888, ITD); assay: Inhibition of recombinant human C-terminal FLT3 ITD mutant (571 to 993 residues) after 90 mins by mobility shift assay
[2] = target: Tyrosine-protein kinase HCK (Homo sapiens, UniProt P08631)
Description: Inhibition of recombinant human HCK SH3-SH2-KD (75 to 526 residues) after 20 mins by mobility shift assay

[3] = system: MV4-11; assay: Growth inhibition of human MV4-11 cells after 3 days by Alamar blue assay; assay type: functional; details: MV4-11, 72 h

Chain of Receptor-type tyrosine-protein kinase FLT3 (P36888 whole entry, looked up, stated change not applied, the tested form may be a part): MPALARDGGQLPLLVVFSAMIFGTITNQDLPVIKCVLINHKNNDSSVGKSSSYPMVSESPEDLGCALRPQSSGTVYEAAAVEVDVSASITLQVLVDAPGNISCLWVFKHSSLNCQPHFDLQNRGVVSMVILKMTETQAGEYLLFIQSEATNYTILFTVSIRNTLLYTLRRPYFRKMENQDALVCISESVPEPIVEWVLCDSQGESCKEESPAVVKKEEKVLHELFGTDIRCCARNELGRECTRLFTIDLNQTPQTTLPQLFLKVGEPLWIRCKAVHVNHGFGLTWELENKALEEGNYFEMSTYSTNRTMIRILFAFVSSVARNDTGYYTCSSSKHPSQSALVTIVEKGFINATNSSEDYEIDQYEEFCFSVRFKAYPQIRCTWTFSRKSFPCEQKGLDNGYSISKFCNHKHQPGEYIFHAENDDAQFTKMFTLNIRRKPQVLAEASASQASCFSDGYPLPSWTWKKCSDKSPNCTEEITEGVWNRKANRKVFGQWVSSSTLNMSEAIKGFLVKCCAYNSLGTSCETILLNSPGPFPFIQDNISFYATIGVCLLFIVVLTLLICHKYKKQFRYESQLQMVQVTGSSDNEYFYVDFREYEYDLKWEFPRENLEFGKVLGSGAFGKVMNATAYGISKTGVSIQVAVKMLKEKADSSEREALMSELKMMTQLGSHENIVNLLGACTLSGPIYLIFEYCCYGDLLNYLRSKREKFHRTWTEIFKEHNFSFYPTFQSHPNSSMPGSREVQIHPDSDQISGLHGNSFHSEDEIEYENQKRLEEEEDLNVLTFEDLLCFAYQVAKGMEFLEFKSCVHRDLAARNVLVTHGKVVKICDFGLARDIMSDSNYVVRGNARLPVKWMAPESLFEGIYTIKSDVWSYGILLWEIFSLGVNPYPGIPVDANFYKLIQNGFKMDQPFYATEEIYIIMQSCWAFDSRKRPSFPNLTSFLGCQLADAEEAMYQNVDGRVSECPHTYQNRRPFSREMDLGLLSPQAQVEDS
Chain of Tyrosine-protein kinase HCK (P08631 whole entry): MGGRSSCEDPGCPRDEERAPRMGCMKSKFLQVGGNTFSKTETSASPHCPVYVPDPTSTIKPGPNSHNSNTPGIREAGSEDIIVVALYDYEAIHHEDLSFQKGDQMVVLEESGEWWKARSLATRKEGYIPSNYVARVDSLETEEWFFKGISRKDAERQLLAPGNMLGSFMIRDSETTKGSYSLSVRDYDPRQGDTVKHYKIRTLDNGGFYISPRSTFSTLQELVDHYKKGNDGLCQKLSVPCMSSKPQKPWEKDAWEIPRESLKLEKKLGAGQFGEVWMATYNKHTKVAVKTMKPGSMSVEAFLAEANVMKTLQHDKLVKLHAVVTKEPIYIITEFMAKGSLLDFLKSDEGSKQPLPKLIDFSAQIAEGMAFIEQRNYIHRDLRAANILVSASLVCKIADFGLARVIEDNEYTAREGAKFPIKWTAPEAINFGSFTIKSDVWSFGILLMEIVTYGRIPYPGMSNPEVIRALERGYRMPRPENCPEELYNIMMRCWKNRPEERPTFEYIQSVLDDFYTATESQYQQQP

`Nc1ncnc2c1c(-c1ccc(Oc3ccccc3)cc1)cn2[C@H]1CC[C@@H](N[C@@H](Cc2ccc(O)cc2)C(=O)O)CC1` was tested, and the IC50 [1] was 5 nM and the IC50 [2] was 39 nM.
Work on `Nc1ncnc2c1c(-c1ccc(Oc3ccccc3)cc1)cn2[C@H]1CC[C@@H](N[C@@H](Cc2ccccc2)C(=O)O)CC1` yielded an IC50 [1] of 3.1 nM and an IC50 [2] of 74 nM.
`CC(C)CCN[C@H]1CC[C@H](n2cc(-c3ccc(Oc4ccccc4)cc3)c3c(N)ncnc32)CC1` was tested, and the IC50 [1] was 56 nM and the IC50 [2] was 226 nM.
For `C[C@H](N[C@H]1CC[C@H](n2cc(-c3ccc(Oc4ccccc4)cc3)c3c(N)ncnc32)CC1)C(=O)O`, the IC50 [1] was 39 nM and the IC50 [2] was 6.9 nM.
Work on `CC(C)C[C@H](N[C@H]1CC[C@@H](n2cc(-c3ccc(Oc4ccccc4)cc3)c3c(N)ncnc32)CC1)C(=O)O` yielded an IC50 [1] of 23 nM and an IC50 [2] of 105 nM.
With `Nc1ncnc2c1c(-c1ccc(Oc3ccccc3)cc1)cn2[C@H]1CC[C@@H](N2CCC[C@@H]2C(=O)O)CC1` the IC50 [1] was 16 nM and the IC50 [2] was 65 nM.
For `CC(C)CCN[C@H]1CC[C@@H](n2cc(-c3ccc(Oc4ccccc4)cc3)c3c(N)ncnc32)CC1`, the IC50 [1] was 44 nM and the IC50 [2] was 119 nM.
`CC(C)C[C@@H](N[C@H]1CC[C@H](n2cc(-c3ccc(Oc4ccccc4)cc3)c3c(N)ncnc32)CC1)C(=O)O` was tested, and the IC50 [1] was 53 nM and the IC50 [2] was 27 nM.
For `Nc1ncnc2c1c(-c1ccc(Oc3ccccc3)cc1)cn2[C@H]1CC[C@H](NCC(=O)O)CC1`, the IC50 [1] was 28 nM, the GI50 [3] was 98 nM and the IC50 [2] was 3.7 nM.
Compound `Nc1ncnc2c1c(-c1ccc(Oc3ccccc3)cc1)cn2[C@H]1CC[C@@H](N2CCC[C@H]2C(=O)O)CC1` has an IC50 [1] of 20 nM and an IC50 [2] of 79 nM.
`Nc1ncnc2c1c(-c1ccc(Oc3ccccc3)cc1)cn2[C@H]1CC[C@H](N[C@@H](Cc2ccc(O)cc2)C(=O)O)CC1` showed an IC50 [1] of 28 nM and an IC50 [2] of 7.4 nM.
`Nc1ncnc2c1c(-c1ccc(Oc3ccccc3)cc1)cn2[C@H]1CC[C@H](N[C@H](Cc2ccc(O)cc2)C(=O)O)CC1` showed an IC50 [1] of 11 nM and an IC50 [2] of 15 nM.
`Nc1ncnc2c1c(-c1ccc(Oc3ccccc3)cc1)cn2[C@H]1CC[C@H](N[C@H](Cc2ccccc2)C(=O)O)CC1` showed an IC50 [1] of 27 nM and an IC50 [2] of 24 nM.
Work on `C[C@H](N[C@H]1CC[C@@H](n2cc(-c3ccc(Oc4ccccc4)cc3)c3c(N)ncnc32)CC1)C(=O)O` yielded an IC50 [1] of 20 nM and an IC50 [2] of 73 nM.
In the case of `Nc1ncnc2c1c(-c1ccc(Oc3ccccc3)cc1)cn2[C@H]1CC[C@H](NCCC(=O)O)CC1`, the IC50 [1] is reported as 33 nM and the IC50 [2] is reported as 15 nM.
`Nc1ncnc2c1c(-c1ccc(Oc3ccccc3)cc1)cn2[C@H]1CC[C@H](N[C@H](CO)C(=O)O)CC1` gave an IC50 [1] of 17 nM and an IC50 [2] of 6.3 nM.
Compound `Nc1ncnc2c1c(-c1ccc(Oc3ccccc3)cc1)cn2[C@H]1CC[C@@H](N[C@@H](CO)C(=O)O)CC1` has an IC50 [1] of 13 nM and an IC50 [2] of 40 nM.
`C[C@@H](N[C@H]1CC[C@@H](n2cc(-c3ccc(Oc4ccccc4)cc3)c3c(N)ncnc32)CC1)C(=O)O` was tested, and the IC50 [1] was 23 nM and the IC50 [2] was 36 nM.
`Nc1ncnc2c1c(-c1ccc(Oc3ccccc3)cc1)cn2[C@H]1CC[C@@H](N[C@H](Cc2ccccc2)C(=O)O)CC1` showed an IC50 [1] of 2.6 nM, a GI50 [3] of 26 nM and an IC50 [2] of 18 nM.
Compound `CC(C)C[C@H](N[C@H]1CC[C@H](n2cc(-c3ccc(Oc4ccccc4)cc3)c3c(N)ncnc32)CC1)C(=O)O` has an IC50 [1] of 14 nM, a GI50 [3] of 21 nM and an IC50 [2] of 4.4 nM.
`Nc1ncnc2c1c(-c1ccc(Oc3ccccc3)cc1)cn2[C@H]1CC[C@@H](N[C@H](Cc2ccc(O)cc2)C(=O)O)CC1` was tested, and the IC50 [1] was 5 nM, the GI50 [3] was 18 nM and the IC50 [2] was 13 nM.
With `Nc1ncnc2c1c(-c1ccc(Oc3ccccc3)cc1)cn2[C@H]1CC[C@H](N2CCC[C@H]2C(=O)O)CC1` the IC50 [1] was 26 nM and the IC50 [2] was 52 nM.
With `C[C@@H](N[C@H]1CC[C@H](n2cc(-c3ccc(Oc4ccccc4)cc3)c3c(N)ncnc32)CC1)C(=O)O` the IC50 [1] was 39 nM and the IC50 [2] was 36 nM.
Work on `CC(C)C[C@@H](N[C@H]1CC[C@@H](n2cc(-c3ccc(Oc4ccccc4)cc3)c3c(N)ncnc32)CC1)C(=O)O` yielded an IC50 [1] of 35 nM and an IC50 [2] of 137 nM.
Compound `Nc1ncnc2c1c(-c1ccc(Oc3ccccc3)cc1)cn2[C@H]1CC[C@H](N[C@@H](Cc2ccccc2)C(=O)O)CC1` has an IC50 [1] of 24 nM and an IC50 [2] of 7.5 nM.
`Nc1ncnc2c1c(-c1ccc(Oc3ccccc3)cc1)cn2[C@H]1CC[C@H](N[C@H]2CCOC2=O)CC1` was tested, and the IC50 [1] was 25 nM and the IC50 [2] was 28 nM.
`Nc1ncnc2c1c(-c1ccc(Oc3ccccc3)cc1)cn2[C@H]1CC[C@@H](NCC(=O)O)CC1` showed an IC50 [1] of 32 nM and an IC50 [2] of 12 nM.
`Nc1ncnc2c1c(-c1ccc(Oc3ccccc3)cc1)cn2[C@H]1CC[C@H](N2CCC[C@@H]2C(=O)O)CC1` showed an IC50 [1] of 126 nM and an IC50 [2] of 200 nM.
Compound `Nc1ncnc2c1c(-c1ccc(Oc3ccccc3)cc1)cn2[C@H]1CC[C@H](N[C@@H](CO)C(=O)O)CC1` has an IC50 [1] of 18 nM, a GI50 [3] greater than 100 nM and an IC50 [2] of 1.8 nM.
Compound `Nc1ncnc2c1c(-c1ccc(Oc3ccccc3)cc1)cn2[C@H]1CC[C@@H](N[C@H]2CCOC2=O)CC1` has an IC50 [1] of 27 nM, a GI50 [3] of 29 nM and an IC50 [2] of 5.4 nM.
In the case of `Nc1ncnc2c1c(-c1ccc(Oc3ccccc3)cc1)cn2[C@H]1CC[C@@H](N[C@H](CO)C(=O)O)CC1`, the IC50 [1] is reported as 12 nM and the IC50 [2] is reported as 23 nM.
Compound `CN1CCN([C@H]2CC[C@H](n3cc(-c4ccc(Oc5ccccc5)cc4)c4c(N)ncnc43)CC2)CC1` has a GI50 [3] of 40 nM and an IC50 [2] of 0.4 nM.
